The numbers were not newly measured in patent US9561285B2, “Carrier-linked carbamate prodrug linkers” (Ascendis Pharma AS, priority 2010, dated 2017), which cites them from elsewhere.

For the data set the following is noted: buffer, pH 7.

`O=C(Nc1ccccc1)Oc1ccc([N+](=O)[O-])cc1` [p-nitrophenyl-O—CO—NH-phenyl]: the half-life of hydrolysis is 26 s.
